{"source": "patent US20250034171A1", "about": "“IMIDAZOPYRIDINE AMIDES AND RELATED COMPOUNDS FOR USE IN THE TREATMENT OF BACTERIAL INFECTIONS” (priority 2021, published 2025)", "key": {"[1]": {"system": "Mycobacterium tuberculosis strain H37Rv", "assay": "Test 2: MIC determination against M. tuberculosis, resazurin fluorescence", "format": "cell-based", "conditions": "Test 2, M. tuberculosis H37Rv; for MIC90: read-out: Bacterial activity MIC90; for IC50: read-out: Bacterial activity pMIC50 (converted)"}, "[2]": {"assay": "Metabolic stability in liver microsomes (intrinsic clearance)", "format": "in vitro ADME", "conditions": "for half-life at 1 µM / microsomal CLint at 1 µM: microsomes; for Metabolic Stability (liver microsome intrinsic clearance) Clearance (mouse, μl/min./mg protein) / Metabolic Stability Half life (mouse, min.): mouse liver microsomes", "experimental": "The test compound was incubated under the generic condition (0.5 mg/ml microsomal protein, 1 mM NADPH, 1 mM MgCl2, and 0.1 M phosphate buffer, pH 7.4, 37° C.) at a defined substrate concentration (typically 1 μM) in liver microsomes of selected species across a time course (typically 0, 5, 10, 20, 40 and 60 minutes) at Cyprotex (Cheshire, UK). The liver microsomes, buffer and test compound will be pre-incubated for 5 minutes. The addition of the co-factor NADPH will initiate the reaction and the reaction was terminated by addition of acetonitrile. The samples were centrifuged prior to analysis by LC-MS/MS analysis. The relative amount of parent compound remaining in the active incubations vs. the control incubations (t=0 mins) for each compound was measured by peak area comparison. The in vitro metabolic half-life (t1/2) was calculated using the slope of the log-linear regression from the percentage parent compound remaining versus time relationship (κ), The in vitro intrinsic clearance (Cl^int) (μl/min/mg microsomal protein) was calculated using the in vitro metabolic half-life, incubation volume and the weight of microsomal protein in the incubation."}, "[3]": {"system": "Salmonella typhimurium Ames II Mixed Strains (TA7001-TA7006) and TA98", "assay": "Genotoxicity assay (AmesIIb mutagenicity test); further: key: an AmesIIb score of 1 shows no genotoxicity signals", "format": "cell-based", "excerpt": "The aim is to evaluate compounds (and/or their metabolites) for their ability to induce reverse mutations in a gene of histidine-requiring Salmonella typhimurium strains to produce histidine-independent strains of these bacteria, in the absence and in the presence of a mammalian metabolic activation system.\nPoint mutations were made in the histidine (His) operon in Salmonella typhimurium, rendering the bacteria incapable of producing histidine. These single base substitutions are positioned at strategic points within the His gene, resulting in his-organisms that cannot grow unless histidine is supplied. When a mutagenic event occurs, base substitutions within the His gene then cause the reversion of the his-Ames II™ strains to His.\nA chemical's mutagenic potential is assessed by exposing these his-organisms to varying concentrations of chemical and selecting for the reversion event. Medium lacking histidine is used for this selection which allows only those cells that have undergone the his- to His reversion to survive and grow.\nThe assay may be performed using a kit and instructions from Xenometric. The two strains provided in the Xenometric kit are the Ames II™ Mixed Strains and TA98. The Ames II™ Mixed Strains contains an equimolar mixture of the Ames II™ TA7001-TA7006 strains. Individually, these strains are designed to revert by only one specific base-pair substitution out of six possible changes. Thus, when mixed, all six base substitution mutations can be represented in one culture. This kit also contains TA98 for the detection of frameshift mutations."}, "[4]": {"conditions": "Mycobacterium tuberculosis, H37RV"}, "[5]": {"conditions": "mouse, pH 7.4, Metabolic Stability Half life (mouse, min.)"}, "[6]": {"conditions": "mouse, pH 7.4, mouse liver microsomes, read-out: Metabolic Stability (liver microsome intrinsic clearance) Clearance (mouse, μl/min./mg protein)"}, "[7]": {"conditions": "human, pH 7.4, Metabolic Stability Half life (human, min.)"}, "[8]": {"conditions": "human, pH 7.4, human liver microsomes, read-out: Metabolic Stability (liver microsome intrinsic clearance) Clearance (human, μl/min./mg protein)"}}, "note": "Read-outs that look alike come from different tables or passages of the source.", "data": [{"compound": "CCc1nc2cc(F)ccn2c1C(=O)NCc1ccc(-c2nc3n(n2)CCCC3)cc1", "note": "[Compound 120]", "values": [{"measurement": "MIC90", "setting": "[1]; [4]", "value": 0.042, "unit": "µM"}, {"measurement": "IC50", "setting": "[1]; [4]", "value": 14500, "unit": "pM"}, {"measurement": "half-life at 1 µM", "setting": "[2]; [5]", "value": 1.61, "unit": "h"}, {"measurement": "microsomal CLint at 1 µM", "setting": "[2]; [6]", "value": 14.4, "unit": "µL/min/mg"}, {"measurement": "GeneTox AmesIIb Score", "setting": "[3]; Salmonella typhimurium", "value": 1}]}, {"compound": "CCc1nc2ncc(C)cn2c1C(=O)NCc1ccc(-c2nc3n(n2)CCC(C)(C)C3)cc1", "note": "[Compound 144]", "values": [{"measurement": "MIC90", "setting": "[1]; [4]", "value": 0.05, "unit": "µM"}, {"measurement": "IC50", "setting": "[1]; [4]", "value": 12600, "unit": "pM"}, {"measurement": "half-life at 1 µM", "setting": "[2]; [5]", "value": "> 3", "unit": "h"}, {"measurement": "microsomal CLint at 1 µM", "setting": "[2]; [6]", "value": "< 7.7", "unit": "µL/min/mg"}, {"measurement": "GeneTox AmesIIb Score", "setting": "[3]; Salmonella typhimurium", "value": 1}]}, {"compound": "CCc1cnc2nc(CC)c(C(=O)NCc3ccc(-c4cn5c(n4)C[C@H](C(F)(F)F)CC5)cc3)n2c1", "note": "[Compound 151]", "values": [{"measurement": "MIC90", "setting": "[1]; [4]", "value": 0.054, "unit": "µM"}, {"measurement": "IC50", "setting": "[1]; [4]", "value": 18200, "unit": "pM"}, {"measurement": "half-life at 1 µM", "setting": "[2]; [7]", "value": 0.0717, "unit": "h"}, {"measurement": "microsomal CLint at 1 µM", "setting": "[2]; [8]", "value": 326, "unit": "µL/min/mg"}, {"measurement": "half-life at 1 µM", "setting": "[2]; [5]", "value": 0.37, "unit": "h"}, {"measurement": "microsomal CLint at 1 µM", "setting": "[2]; [6]", "value": 62.5, "unit": "µL/min/mg"}, {"measurement": "GeneTox AmesIIb Score", "setting": "[3]; Salmonella typhimurium", "value": 1}]}, {"compound": "CCc1cnc2nc(CC)c(C(=O)NCc3ccc(-c4cn5c(n4)C[C@@H](C(F)(F)F)CC5)cc3)n2c1", "note": "[Compound 152]", "values": [{"measurement": "MIC90", "setting": "[1]; [4]", "value": 0.088, "unit": "µM"}, {"measurement": "IC50", "setting": "[1]; [4]", "value": 23400, "unit": "pM"}, {"measurement": "half-life at 1 µM", "setting": "[2]; [7]", "value": "< 0.0667", "unit": "h"}, {"measurement": "microsomal CLint at 1 µM", "setting": "[2]; [8]", "value": "> 347", "unit": "µL/min/mg"}, {"measurement": "half-life at 1 µM", "setting": "[2]; [5]", "value": 0.178, "unit": "h"}, {"measurement": "microsomal CLint at 1 µM", "setting": "[2]; [6]", "value": 129, "unit": "µL/min/mg"}, {"measurement": "GeneTox AmesIIb Score", "setting": "[3]; Salmonella typhimurium", "value": 1}]}, {"compound": "CCc1nc2n(c1C(=O)NCc1ccc(-c3cc4n(n3)CCC(C(F)(F)F)C4)cc1)CCCC2", "note": "(stereo not drawn) [Compound 179]", "values": [{"measurement": "MIC90", "setting": "[1]; [4]", "value": 0.0097, "unit": "µM"}, {"measurement": "IC50", "setting": "[1]; [4]", "value": 3310, "unit": "pM"}, {"measurement": "half-life at 1 µM", "setting": "[2]; [5]", "value": 0.432, "unit": "h"}, {"measurement": "microsomal CLint at 1 µM", "setting": "[2]; [6]", "value": 53.5, "unit": "µL/min/mg"}, {"measurement": "GeneTox AmesIIb Score", "setting": "[3]; Salmonella typhimurium", "value": 1}]}, {"compound": "CCc1nc2ncccn2c1C(=O)NCc1ccc(-c2nc3n(n2)CC[C@@H](C2CC2)C3)cc1", "note": "[Compound 183]", "values": [{"measurement": "MIC90", "setting": "[1]; [4]", "value": 0.48, "unit": "µM"}, {"measurement": "IC50", "setting": "[1]; [4]", "value": 646000, "unit": "pM"}, {"measurement": "half-life at 1 µM", "setting": "[2]; [5]", "value": 2.28, "unit": "h"}, {"measurement": "microsomal CLint at 1 µM", "setting": "[2]; [6]", "value": 10.1, "unit": "µL/min/mg"}, {"measurement": "GeneTox AmesIIb Score", "setting": "[3]; Salmonella typhimurium", "value": 1}]}, {"compound": "CCc1nc2ncccn2c1C(=O)NCc1ccc(-c2nc3n(n2)CC[C@H](C2CC2)C3)cc1", "note": "[Compound 184]", "values": [{"measurement": "MIC90", "setting": "[1]; [4]", "value": 0.43, "unit": "µM"}, {"measurement": "IC50", "setting": "[1]; [4]", "value": 166000, "unit": "pM"}, {"measurement": "half-life at 1 µM", "setting": "[2]; [5]", "value": "> 3", "unit": "h"}, {"measurement": "microsomal CLint at 1 µM", "setting": "[2]; [6]", "value": "< 7.7", "unit": "µL/min/mg"}, {"measurement": "GeneTox AmesIIb Score", "setting": "[3]; Salmonella typhimurium", "value": 1}]}, {"compound": "CCc1nc2ncc(NC(=O)OC(C)(C)C)cn2c1C(=O)NCc1ccc(-c2nc3n(n2)CCC(C(F)(F)F)C3)cc1", "note": "(stereo not drawn) [Compound 194]", "values": [{"measurement": "Bacterial activity pMIC50", "setting": "[1]", "value": 7.43}, {"measurement": "MIC90", "setting": "[1]", "value": 0.1, "unit": "µM"}, {"measurement": "Metabolic Stability (liver microsome intrinsic clearance) Clearance (human, μl/min./mg protein)", "setting": "[2]; human liver microsomes", "value": "<7.7", "unit": "μl/min./mg protein"}, {"measurement": "Metabolic Stability Half life (human, min.)", "setting": "[2]; human liver microsomes", "value": ">3", "unit": "h"}, {"measurement": "Metabolic Stability (liver microsome intrinsic clearance) Clearance (mouse, μl/min./mg protein)", "setting": "[2]", "value": "<7.7", "unit": "μl/min./mg protein"}, {"measurement": "Metabolic Stability Half life (mouse, min.)", "setting": "[2]", "value": ">3", "unit": "h"}, {"measurement": "GeneTox AmesIIb Score", "setting": "[3]", "value": 1}]}, {"compound": "CCc1nc2nc(C)c(N(Cc3ccc(OC)cc3OC)C(=O)OC(C)(C)C)cn2c1C(=O)NCc1ccc(-c2nc3n(n2)CC[C@H](C(F)(F)F)C3)cc1", "note": "[Compound 196]", "values": [{"measurement": "Bacterial activity pMIC50", "setting": "[1]", "value": 7.56}, {"measurement": "MIC90", "setting": "[1]", "value": 0.067, "unit": "µM"}, {"measurement": "Metabolic Stability (liver microsome intrinsic clearance) Clearance (mouse, μl/min./mg protein)", "setting": "[2]", "value": "<7.7", "unit": "μl/min./mg protein"}, {"measurement": "Metabolic Stability Half life (mouse, min.)", "setting": "[2]", "value": ">3", "unit": "h"}, {"measurement": "GeneTox AmesIIb Score", "setting": "[3]", "value": 1}]}]}
